For eight molecules, GI50 and TGI results are on record in PubChem BioAssay (NCI).

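These data come from cells grown in 96-well plates and exposed to compound for 48 hours at five concentrations. GI50 is the concentration that inhibits growth by half. TGI: total growth inhibition.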

Some test systems named below: COLO 205 colon; RPMI-8226 leukemia; HOP-62 NSCLC; SK-MEL-28 melanoma; NCI-H460 lung; UO-31 renal; SF-268 CNS; HOP-92 NSCLC; 786-0 renal; SK-OV-3 ovarian.
Common to all, as to assay: NCI-60 cell line screen, 48 h

Turning to `CC(C)Oc1ccc2cc(-c3nn(CC4CCNCC4)c4ncnc(N)c34)ccc2c1`, the GI50 is 3.39 µM with COLO 205 colon; 3.1 µM in the test on RPMI-8226 leukemia; 15.6 µM in the test on HOP-62 NSCLC; 2.14 µM with SK-MEL-28 melanoma; 14.9 µM with NCI-H460 lung; 4.15 µM in the test with UO-31 renal. Also, the GI50 in the test on SF-268 CNS is 8.8 µM; with HOP-92 NSCLC it was 6.37 µM; in the test on 786-0 renal it was 11 µM; with SK-OV-3 ovarian it was 13.8 µM. Moreover, the TGI in the test on COLO 205 colon was determined as 13.2 µM; with RPMI-8226 leukemia, 12.9 µM; in the test with HOP-62 NSCLC, 31.4 µM; in the test on SK-MEL-28 melanoma, 5.3 µM; in the test with NCI-H460 lung, 28.5 µM; with UO-31 renal, 18.9 µM. For the same molecule, the TGI in the test on SF-268 CNS is 23.5 µM; in the test with HOP-92 NSCLC, 20.8 µM; in the test with 786-0 renal it was 24.4 µM; with SK-OV-3 ovarian it was 27.9 µM.

Regarding `COc1ccc2[nH]cc(C3(c4c[nH]c5ccc(OC)cc45)C(=O)Nc4ccc(F)cc43)c2c1`, the GI50 with COLO 205 colon is 1.69 µM; with RPMI-8226 leukemia, 4.41 µM; with HOP-62 NSCLC, 3.09 µM; in the test on SK-MEL-28 melanoma, 2.29 µM; in the test on NCI-H460 lung, 2.3 µM; with UO-31 renal, 1.51 µM. Moreover, the GI50 in the test with SF-268 CNS is 3.17 µM; in the test on HOP-92 NSCLC, 2.39 µM; with 786-0 renal, 3.39 µM; with SK-OV-3 ovarian, 3.59 µM. The TGI with COLO 205 colon was 3.05 µM; with RPMI-8226 leukemia it was above 100 µM; with HOP-62 NSCLC it was 13 µM; in the test on SK-MEL-28 melanoma, 6.75 µM; with NCI-H460 lung, 5.17 µM; with UO-31 renal, 11.9 µM. Further, the TGI worked out at 12.7 µM with SF-268 CNS, 9.24 µM with HOP-92 NSCLC, 12.5 µM in the test with 786-0 renal and 13.5 µM with SK-OV-3 ovarian.

Regarding `O=C(O)Cc1cc(Cl)ccc1O`, the TGI in the test on COLO 205 colon, in the test on RPMI-8226 leukemia, in the test on HOP-62 NSCLC, in the test with SK-MEL-28 melanoma, with NCI-H460 lung and in the test with UO-31 renal was above 100 µM in each case. For the same molecule, the TGI in the test with SF-268 CNS, with HOP-92 NSCLC, with 786-0 renal and in the test with SK-OV-3 ovarian was above 100 µM in each case.

For `Nc1nc(/C=C\c2ccc([N+](=O)[O-])s2)nc(N2CCCC2)n1`, the GI50 in the test with COLO 205 colon is 0.524 µM; in the test with RPMI-8226 leukemia, 1.26 µM; with HOP-62 NSCLC it was 13.5 µM; in the test with SK-MEL-28 melanoma, 9.33 µM; in the test with NCI-H460 lung, 3.68 µM; in the test on UO-31 renal it was 7.58 µM. Besides, the GI50 is 2.37 µM in the test on SF-268 CNS, 6.73 µM with HOP-92 NSCLC, 10.8 µM in the test on 786-0 renal and 9.25 µM in the test on SK-OV-3 ovarian. Further, the TGI came out at 3.5 µM in the test on COLO 205 colon; 4.39 µM in the test with RPMI-8226 leukemia; 26.7 µM with HOP-62 NSCLC; 23.6 µM in the test on SK-MEL-28 melanoma; 16.1 µM in the test on NCI-H460 lung; 22.2 µM with UO-31 renal. Further, the TGI was 13.6 µM with SF-268 CNS, 18.6 µM in the test on HOP-92 NSCLC, 23.6 µM with 786-0 renal and 30.4 µM in the test with SK-OV-3 ovarian.

Regarding `CCOC(=O)C(Cc1ccc(CCCC(=O)NCCC(=O)Nc2ccc3nc(C)sc3c2)cc1)C(=O)OCC`, the GI50 in the test with COLO 205 colon was 32.3 µM; with RPMI-8226 leukemia, 21.1 µM; in the test with HOP-62 NSCLC, above 83.3 µM; in the test on SK-MEL-28 melanoma, 28.7 µM; in the test on NCI-H460 lung, above 62.4 µM; with UO-31 renal it was 26.9 µM. Besides, the GI50 was above 78 µM with SF-268 CNS, 55.6 µM with HOP-92 NSCLC, above 77.9 µM with 786-0 renal and above 100 µM in the test on SK-OV-3 ovarian. Also, the TGI is above 96.4 µM in the test with COLO 205 colon; 53.4 µM in the test with RPMI-8226 leukemia; above 100 µM in the test with HOP-62 NSCLC; above 96.7 µM in the test with SK-MEL-28 melanoma; above 100 µM in the test with NCI-H460 lung; above 76.8 µM in the test on UO-31 renal. Besides, the TGI in the test on SF-268 CNS, in the test on HOP-92 NSCLC, with 786-0 renal and with SK-OV-3 ovarian was above 100 µM each time.

As to `CCn1c2ccccc2c2cc(NC(=O)Nc3ccc([N+](=O)[O-])cc3C)ccc21`, the GI50 is 2.82 µM in the test on COLO 205 colon; 1.4 µM in the test on RPMI-8226 leukemia; 5.02 µM in the test with HOP-62 NSCLC; 5.33 µM in the test on SK-MEL-28 melanoma; 3.09 µM with NCI-H460 lung; 2.68 µM in the test with UO-31 renal. Moreover, the GI50 with SF-268 CNS was 12.2 µM; in the test on HOP-92 NSCLC, 1.27 µM; in the test on 786-0 renal, 4.61 µM; in the test on SK-OV-3 ovarian, 18.1 µM. The TGI in the test with COLO 205 colon was 10.3 µM; in the test with RPMI-8226 leukemia, 4.01 µM; with HOP-62 NSCLC, 55.2 µM; in the test on SK-MEL-28 melanoma, 26.2 µM; in the test with NCI-H460 lung it was 14.8 µM; in the test on UO-31 renal it was 17.1 µM. In addition, the TGI was above 100 µM with SF-268 CNS, 4.64 µM in the test with HOP-92 NSCLC, 84.9 µM with 786-0 renal and above 100 µM in the test on SK-OV-3 ovarian.

With `CC[C@H]1[C@@H]2C=C[C@@H]3[C@H]4C/C=C\C(=O)NCCC[C@@H]5NC(=O)/C(=C(O)/C=C/[C@@H]4C[C@@H]3[C@H]2C[C@H]1C)C5=O`, the GI50 was 3.24 µM in the test with COLO 205 colon; 1.77 µM in the test with RPMI-8226 leukemia; 1.4 µM with HOP-62 NSCLC; 1.89 µM with SK-MEL-28 melanoma; 0.409 µM in the test with NCI-H460 lung; 0.546 µM in the test on UO-31 renal. Besides, the GI50 was 0.448 µM in the test on SF-268 CNS, 1.41 µM with HOP-92 NSCLC, 0.44 µM in the test on 786-0 renal and 1.73 µM in the test with SK-OV-3 ovarian. Further, the TGI in the test with COLO 205 colon amounted to 8.44 µM; in the test with RPMI-8226 leukemia it was 4.23 µM; in the test with HOP-62 NSCLC, 3.03 µM; in the test on SK-MEL-28 melanoma, 4.06 µM; with NCI-H460 lung, 1.84 µM; with UO-31 renal, 1.91 µM. For the same molecule, the TGI in the test with SF-268 CNS is 1.86 µM; with HOP-92 NSCLC, 2.82 µM; with 786-0 renal it was 1.59 µM; with SK-OV-3 ovarian, 3.48 µM.

As to `Clc1ccc2[nH]cc(-c3nnnn3-c3ccccc3)c2c1`, the GI50 was 23.1 µM in the test on COLO 205 colon; 14.5 µM in the test on RPMI-8226 leukemia; 28 µM with HOP-62 NSCLC; 14.3 µM in the test on SK-MEL-28 melanoma; 20.3 µM with NCI-H460 lung; 26.9 µM with UO-31 renal. The GI50 with SF-268 CNS was 53.1 µM; with HOP-92 NSCLC it was 27.5 µM; in the test with 786-0 renal, 29.6 µM; in the test with SK-OV-3 ovarian, above 44.3 µM. Also, the TGI with COLO 205 colon was above 57.8 µM; in the test on RPMI-8226 leukemia it was 43.3 µM; in the test with HOP-62 NSCLC it was above 100 µM; in the test on SK-MEL-28 melanoma, above 100 µM; in the test on NCI-H460 lung it was above 100 µM; in the test on UO-31 renal it was above 100 µM. Besides, the TGI with SF-268 CNS is above 100 µM; in the test with HOP-92 NSCLC, above 100 µM; with 786-0 renal, above 100 µM; with SK-OV-3 ovarian, above 75.3 µM.
